From patent publication US20240158392A1 (Janssen Biotech, Inc., priority 2021, published 2024)

Target: SIK2 (Homo sapiens, UniProt Q9H0K1)
Test: SIK2 Enzymatic Assay High Version 2 (High ATP)
Assay type: biochemical
Conditions: not given
Procedure, shortened: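 At room temperature, enzyme (6 nM, 2× final) was preincubated with compound for 30 min, then 6 mM ATP and 400 μM HDAC5tide (both 2× final) were added for 2 h. ADP formed was measured by ADP-Glo Max (2 h reagent, 1 h detection) using luminescence.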

Chain of SIK2 (Q9H0K1 whole entry, species assumed): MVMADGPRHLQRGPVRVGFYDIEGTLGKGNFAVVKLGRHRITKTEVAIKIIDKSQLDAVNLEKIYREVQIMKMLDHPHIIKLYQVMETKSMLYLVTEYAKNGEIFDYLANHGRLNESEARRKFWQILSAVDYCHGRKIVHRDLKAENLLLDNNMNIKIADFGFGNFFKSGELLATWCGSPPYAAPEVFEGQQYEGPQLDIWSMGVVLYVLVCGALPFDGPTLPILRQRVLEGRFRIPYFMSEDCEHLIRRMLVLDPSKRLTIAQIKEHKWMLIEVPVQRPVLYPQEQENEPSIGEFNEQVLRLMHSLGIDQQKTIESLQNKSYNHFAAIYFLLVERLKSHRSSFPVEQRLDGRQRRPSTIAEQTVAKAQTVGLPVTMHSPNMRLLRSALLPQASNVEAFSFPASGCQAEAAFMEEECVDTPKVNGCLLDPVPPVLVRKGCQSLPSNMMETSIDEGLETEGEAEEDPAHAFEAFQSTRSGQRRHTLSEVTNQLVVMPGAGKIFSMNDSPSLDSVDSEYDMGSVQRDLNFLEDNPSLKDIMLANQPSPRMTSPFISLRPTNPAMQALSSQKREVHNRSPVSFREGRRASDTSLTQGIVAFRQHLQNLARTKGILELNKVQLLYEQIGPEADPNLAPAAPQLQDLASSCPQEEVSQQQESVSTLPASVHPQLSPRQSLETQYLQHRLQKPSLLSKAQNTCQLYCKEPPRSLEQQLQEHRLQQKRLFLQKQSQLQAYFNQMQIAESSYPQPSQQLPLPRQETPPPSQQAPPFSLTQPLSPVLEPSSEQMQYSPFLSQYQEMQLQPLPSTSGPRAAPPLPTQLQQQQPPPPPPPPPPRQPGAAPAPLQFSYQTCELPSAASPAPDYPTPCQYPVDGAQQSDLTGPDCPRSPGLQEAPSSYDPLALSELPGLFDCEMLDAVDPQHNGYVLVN

| Compound | IC50 [µM] |
| --- | --- |
| CNC(=O)c1cccc(Nc2cc3cc(-c4cc(C)ncc4O[C@H]4C[C@H]5COC[C@@H](C4)N5)ccn3n2)n1 [Example 367, N-methyl-6-[[5-[2-methyl-5-[[(1S,5R,7s)-3-oxa-9-azabicyclo[3.3.1]nonan-7-yl]oxy]-4-pyridyl]pyrazolo[1,5-a]pyridin-2-yl]amino]pyridine-2-carboxamide] | 0.00681 |
| Cc1cc(-c2ccn3nc(Nc4ccc(S(C)(=O)=O)cn4)cc3c2)c(O[C@H]2C[C@H]3COC[C@@H](C2)N3)cn1 [Example 393, 5-[2-methyl-5-[[(1R,5S,7s)-3-oxa-9-azabicyclo[3.3.1]nonan-7-yl]oxy]-4-pyridyl]-N-(5-methylsulfonyl-2-pyridyl)pyrazolo[1,5-a]pyridin-2-amine] | 0.00131 |
| CCN1[C@@H]2COC[C@H]1C[C@@H](Oc1cnc(C)cc1-c1ccn3nc(NC(=O)C4CC4)cc3c1)C2 [Example 161, 7-endo-N-(5-(5-(((1R,5S,7s)-9-ethyl-3-oxa-9-azabicyclo[3.3.1]nonan-7-yl)oxy)-2-methylpyridin-4-yl)pyrazolo[1,5-a]pyridin-2-yl)cyclopropanecarboxamide] | < 0.000847 |
| Cc1cc(-c2ccn3nc(Nc4ccc(C(=O)NCCO)cn4)cc3c2)c(O[C@H]2C[C@H]3COC[C@@H](C2)N3)cn1 [Example 369, N-(2-hydroxyethyl)-6-[[5-[2-methyl-5-[[(1S,5R,7s)-3-oxa-9-azabicyclo[3.3.1]nonan-7-yl]oxy]-4-pyridyl]pyrazolo[1,5-a]pyridin-2-yl]amino]pyridine-3-carboxamide] | 0.00164 |
| CNC(=O)c1ccc(Nc2cc3cc(-c4cc(C)ncc4O[C@H]4C[C@H]5COC[C@@H](C4)N5C(C)C)ccn3n2)nc1 [Example 531, 6-[[5-[5-[[(1S,5R)-9-isopropyl-3-oxa-9-azabicyclo[3.3.1]nonan-7-yl]oxy]-2-methyl-4-pyridyl]pyrazolo[1,5-a]pyridin-2-yl]amino]-N-methyl-pyridine-3-carboxamide] | 0.00144 |
| Cc1cc(-c2ccn3nc(Nc4cc(C)nc(C)n4)cc3c2)c(O[C@H]2C[C@H]3COC[C@@H](C2)N3C)cn1 [Example 417, N-(2,6-dimethylpyrimidin-4-yl)-5-[2-methyl-5-[[(1S,5R,7s)-9-methyl-3-oxa-9-azabicyclo[3.3.1]nonan-7-yl]oxy]-4-pyridyl]pyrazolo[1,5-a]pyridin-2-amine] | < 0.000847 |
| Cc1cc(-c2ccn3nc(NC(=O)C4(F)CC4)cc3c2)c(OC[C@H]2CCN2C)cn1 [Example 623, 1-fluoro-N-[5-[2-methyl-5-[[(2R)-1-methylazetidin-2-yl]methoxy]-4-pyridyl]pyrazolo[1,5-a]pyridin-2-yl]cyclopropanecarboxamide] | 0.00644 |
| CNC(=O)c1ccnc(Nc2cc3cc(-c4cc(C)ncc4O[C@H]4C[C@H]5COC[C@@H](C4)N5)ccn3n2)c1 [Example 172, 2-((5-(5-(((1R,5S,7s)-3-oxa-9-azabicyclo[3.3.1]nonan-7-yl)oxy)-2-methylpyridin-4-yl)pyrazolo[1,5-a]pyridin-2-yl)amino)-N-methylisonicotinamide] | 0.000876 |

Same assay, conditions: enzyme 6 nM, 6 mM ATP and 400 μM HDAC5tide (each 2× final concentration); 30 minutes pre-incubation, 2 hours; ADP-Glo Max luminescence; read-out: SIK2 high ATP IC50 (μM) (Test Example 2)

| Compound | IC50 [µM] |
| --- | --- |
| CC(C)(C#N)COc1cnc(OCC(F)F)cc1-c1ccn2nc(Nc3cnccn3)cc2c1 [Example 689, 3-[[6-(2,2-difluoroethoxy)-4-[2-(pyrazin-2-ylamino)pyrazolo[1,5-a]pyridin-5-yl]-3-pyridyl]oxy]-2,2-dimethyl-propanenitrile] | 0.00136 |
| Cc1cc(Nc2cc3cc(-c4cc(CF)ncc4OCC(C)(C)O)ccn3n2)nc(C)n1 [Example 327, 1-[[4-[2-[(2,6-dimethylpyrimidin-4-yl)amino]pyrazolo[1,5-a]pyridin-5-yl]-6-(fluoromethyl)-3-pyridyl]oxy]-2-methyl-propan-2-ol] | 0.0366 |
| Cc1cc(Nc2cc3cc(-c4cc(OCC#N)ncc4O[C@H]4CC[C@H](O)CC4)ccn3n2)nc(C)n1 [Example 690, 2-[[4-[2-[(2,6-dimethylpyrimidin-4-yl)amino]pyrazolo[1,5-a]pyridin-5-yl]-5-(4-hydroxycyclohexoxy)-2-pyridyl]oxy]acetonitrile] | 0.00685 |
| Cc1cc(-c2ccn3nc(Nc4cccnn4)cc3c2)c(OC[C@@H]2CNCC(C)(C)O2)cn1 [Example 518, 5-[5-[[(2S)-6,6-dimethylmorpholin-2-yl]methoxy]-2-methyl-4-pyridyl]-N-pyridazin-3-yl-pyrazolo[1,5-a]pyridin-2-amine] | 0.0559 |
| Cc1cc(-c2ccn3nc(Nc4cc(C)c(=O)n(C5CC5)n4)cc3c2)c(O[C@H]2CC[C@H](O)CC2)cn1 [Example 318, 2-cyclopropyl-6-[[5-[5-(4-hydroxycyclohexoxy)-2-methyl-4-pyridyl]pyrazolo[1,5-a]pyridin-2-yl]amino]-4-methyl-pyridazin-3-one] | < 0.000847 |
| Cc1cc(-c2ccn3nc(Nc4cc(C)nc(C)n4)cc3c2)c(OC[C@H]2CC3(CCCC3)CO2)cn1 (single isomer, unassigned) [Example 258, (*R)—N-(2,6-dimethylpyrimidin-4-yl)-5-[2-methyl-5-(8-oxaspiro[4.4]nonan-7-ylmethoxy)-4-pyridyl]pyrazolo[1,5-a]pyridin-2-amine] | 0.153 |
| CCNc1nc(Nc2cc3cc(-c4cc(OC(F)F)ncc4OCC(C)(C)C#N)ccn3n2)cc(C(F)(F)F)n1 [Example 700, 3-[[6-(difluoromethoxy)-4-[2-[[2-(ethylamino)-6-(trifluoromethyl)pyrimidin-4-yl]amino]pyrazolo[1,5-a]pyridin-5-yl]-3-pyridyl]oxy]-2,2-dimethyl-propanenitrile] | 0.00786 |
| Cc1cc(-c2ccn3nc(Nc4cc(C)nc(C(=O)NCC(C)(C)O)n4)cc3c2)c(OCC(C)(C)O)cn1 [Example 647, 4-[[5-[5-(2-hydroxy-2-methyl-propoxy)-2-methyl-4-pyridyl]pyrazolo[1,5-a]pyridin-2-yl]amino]-N-(2-hydroxy-2-methyl-propyl)-6-methyl-pyrimidine-2-carboxamide] | 0.117 |
| Cc1cc(Nc2cc3cc(-c4cc(OC(F)F)ncc4OC[C@@H]4CC(=O)NC4(C)C)ccn3n2)nc(C)n1 (single isomer, unassigned) [Example 731] | 0.00997 |
| Cc1cc(Nc2cc3cc(-c4cc(C(F)(F)F)ncc4OC[C@@]45CN[C@@H](CO4)C5)ccn3n2)nc(C)n1 [Example 252, N-(2,6-dimethylpyrimidin-4-yl)-5-[5-[[(1R,4R)-5-oxa-2-azabicyclo[2.2.1]heptan-4-yl]methoxy]-2-(trifluoromethyl)-4-pyridyl]pyrazolo[1,5-a]pyridin-2-amine] | 0.0284 |
| Cc1cnc(Nc2cc3cc(-c4cc(C)ncc4OC[C@]45CN[C@H](CO4)C5)ccn3n2)cn1 [Example 251, 5-[2-methyl-5-[[(1S,4S)-5-oxa-2-azabicyclo[2.2.1]heptan-4-yl]methoxy]-4-pyridyl]-N-(5-methylpyrazin-2-yl)pyrazolo[1,5-a]pyridin-2-amine] | 0.00284 |
| Cn1ccc(Nc2cc3cc(-c4cc(OC(F)F)ncc4OCC(C)(C)C#N)ccn3n2)n1 [Example 714, 3-[[6-(difluoromethoxy)-4-[2-[(1-methylpyrazol-3-yl)amino]pyrazolo[1,5-a]pyridin-5-yl]-3-pyridyl]oxy]-2,2-dimethyl-propanenitrile] | 0.00617 |
| Cc1cc(-c2ccn3nc(Nc4cc(C)nc(C)n4)cc3c2)c(OC[C@@H](O)C2(C)CC2)cn1 (single isomer, unassigned) [Example 549, (*S)-2-[[4-[2-[(2,6-dimethylpyrimidin-4-yl)amino]pyrazolo[1,5-a]pyridin-5-yl]-6-methyl-3-pyridyl]oxy]-1-(1-methylcyclopropyl)ethanol] | 0.0416 |
| Cc1cc(-c2ccn3nc(Nc4cc(C)nc(C)n4)cc3c2)c(OC[C@@H]2CN(S(C)(=O)=O)CCO2)cn1 [Example 629, N-(2,6-dimethylpyrimidin-4-yl)-5-[2-methyl-5-[[(2S)-4-methylsulfonylmorpholin-2-yl]methoxy]-4-pyridyl]pyrazolo[1,5-a]pyridin-2-amine] | 0.175 |
| Cc1cc(-c2ccn3nc(Nc4cc(C)c(C(=O)NC5CC5)c(C)c4)cc3c2)c(OCC(C)(C)O)cn1 [Example 326, N-cyclopropyl-4-[[5-[5-(2-hydroxy-2-methyl-propoxy)-2-methyl-4-pyridyl]pyrazolo[1,5-a]pyridin-2-yl]amino]-2,6-dimethyl-benzamide] | 0.0362 |
| Cc1cc(-c2ccn3nc(Nc4cc(C)nc(C)n4)cc3c2)c(OCC(C)(O)C(F)(F)F)cn1 (single isomer, unassigned) [Example 263, (*S)-3-[[4-[2-[(2,6-dimethylpyrimidin-4-yl)amino]pyrazolo[1,5-a]pyridin-5-yl]-6-methyl-3-pyridyl]oxy]-1,1,1-trifluoro-2-methyl-propan-2-ol] | 0.00844 |
| Cc1cc(-c2ccn3nc(NC(=O)C4CC4)cc3c2)c(O[C@H]2CCC[C@H](O)C2)cn1 (single isomer, unassigned) [Example 195, trans-N-(5-(5-(((1*S,3*S)-3-hydroxycyclohexyl)oxy)-2-methylpyridin-4-yl)pyrazolo[1,5-a]pyridin-2-yl)cyclopropanecarboxamide] | 0.0116 |
| Cc1cc(-c2ccn3nc(Nc4ccncn4)cc3c2)c(OC[C@@H]2CNCCO2)cn1 [Example 132, 5-[2-methyl-5-[[(2S)-morpholin-2-yl]methoxy]-4-pyridyl]-N-pyrimidin-4-yl-pyrazolo[1,5-a]pyridin-2-amine] | 0.00951 |
| Cc1cc(-c2ccn3nc(Nc4cc(C)c(=O)n(C)n4)cc3c2)c(OC[C@](C)(N)C(F)(F)F)cn1 (single isomer, unassigned) [Example 312, (*S)-6-[[5-[5-(2-amino-3,3,3-trifluoro-2-methyl-propoxy)-2-methyl-4-pyridyl]pyrazolo[1,5-a]pyridin-2-yl]amino]-2,4-dimethyl-pyridazin-3-one] | < 0.000847 |
